Results reported in patent publication EP0407583A1, “DERIVATIVES OF DICHLOR[…] ACYLAMIDO[…] AND INSECTICIDAL, FU[…] HEMATOCIDAL PREPARATIONS BASED ON THEM” (priority 1989, dated 1990).

Tests used:
Candida tropicalis [1] = assay: Fungicidal activity, laboratory test on Sabouraud medium; format: cell-based; settings: composition 0.01 % by mass in distilled water
Method: A fungicidal composition based on this compound was prepared which was a solution of it in distilled water at the concentration pf 0.01 % by mass. A fungicidal activity of the composition, according to the invention, was tested in laboratory conditions for inhibiting the growth of fungi such as Candida tropicalis affecting the macosal and skin coats, and internals.
To this, the Petri dishes containing the Sabouraud growth medium were inoculated with a suspension of microorganisms at the concentration of 5x10^7 cells of fungi in 1 ml.
The restricted surface areas (7 mm in diameter) were coated with the composition by means of a small metal spatula 4x4 mm in size. In a day of incubating at 37 °C in a thermostat, the composition inhibited the growth of yeast--like fungi. An antifungal activity of the composition was specified by a method of 10-fold serial dilution using Sabouraud's liquid medium in 2 ml of which 2x10^5 cells were introduced. After two days of incubation in the thermostat at 34 °C, a minimum dilution of the substance exerting a fungicidal effect was determined.

Solubility (qualitative) = settings: water, alcohols, acetone
Candida albicans [2] = assay: Fungicidal activity, laboratory test on Sabouraud medium; format: cell-based; settings: composition 0.01 % by mass in distilled water
Candida tropicalis [3] = assay: Fungicidal activity, large-scale test on contaminated surfaces and fabrics; format: cell-based; settings: composition 0.01 % by mass; surfaces of ceramics, metal, wood, rubber, fabrics
Method: (§1) The large-scale tests were carried out by using Candida albicans and Candida tropicalis strains 2-day culture of which was diluted with an isotonic solution of sodium chloride to the concentration of 5x10^7 cells in 1 ml.
(§2) The suspended cell culture was applied onto the surface (7 mm in diameter) of articles made of ceramics, metal, wood and rubber as well as cotton, flannel woollen fabrics which were presterillized.
(§3) In a day after incubating from the treated surfaces, the washings were taken with a cotton-gauze tampon wetted with Sabouraud^ts liquid medium, immersed into the tubes with a similar medium and placed into a thermostat at 37 °C for two days. Thereafter, the inoculum was introduced in Sabouraud's stiff agar, and the growth records were made by a conventional procedure.

Candida albicans [4] = assay: as above; format: cell-based; settings: composition 0.01 % by mass; surfaces of ceramics, metal, wood, rubber, fabrics
Method: as §1, §2, §3

Botrytis cinereae [5] = assay: Inhibition of phytopathogenic fungi, field test on affected potato plants; format: in vivo; settings: 5 m^2 plots of affected potato plants sprayed
Source text: (§4) For field tests the plots of 5 m^2 in size with potato plants affected by Fusarium moniliforme, Venturia inaequalis, Rhyzoctonia violaceae, Botrytis cinereae, Verticillium albo-atrum, Diplodia zeae, Fusarium oxysporum, Rhoma betae, Rhyzoctonia aderholdii, Aspergillus niger, Alternaria sobani, Botrytis allii, Aspergillus fumigatis, Fusarium culmorum, Penicillium cyclopium were sprayed with the fungicide of the invention. To compare, the similar plots of the affected potato plants were aprayed with the known compositions indicated above.

Rhyzoctonia aderholdii [6] = assay: as above; format: in vivo; settings: 5 m^2 plots of affected potato plants sprayed
Source text: as §4

Fusarium moniliforme [7] = assay: as above; format: in vivo; settings: 5 m^2 plots of affected potato plants sprayed
Source text: as §4

Venturia inaequalis [8] = assay: as above; format: in vivo; settings: 5 m^2 plots of affected potato plants sprayed
Source text: as §4

Fusarium oxysporum [9] = assay: as above; format: in vivo; settings: 5 m^2 plots of affected potato plants sprayed
Source text: as §4

Diplodia zeae [10] = assay: as above; format: in vivo; settings: 5 m^2 plots of affected potato plants sprayed
Source text: as §4

Verticillium albo-atrum [11] = assay: as above; format: in vivo; settings: 5 m^2 plots of affected potato plants sprayed
Source text: as §4

Fusarium culmorum [12] = assay: as above; format: in vivo; settings: 5 m^2 plots of affected potato plants sprayed
Source text: as §4

Botrytis allii [13] = assay: as above; format: in vivo; settings: 5 m^2 plots of affected potato plants sprayed
Source text: as §4

Rhyzoctonia violaceae [14] = assay: as above; format: in vivo; settings: 5 m^2 plots of affected potato plants sprayed
Source text: as §4

Alternaria sobani [15] = assay: as above; format: in vivo; settings: 5 m^2 plots of affected potato plants sprayed
Source text: as §4

Aspergillus fumigatis [16] = assay: as above; format: in vivo; settings: 5 m^2 plots of affected potato plants sprayed
Source text: as §4

Rhoma betae [17] = assay: as above; format: in vivo; settings: 5 m^2 plots of affected potato plants sprayed
Source text: as §4

Penicillium cyclopium [18] = assay: as above; format: in vivo; settings: 5 m^2 plots of affected potato plants sprayed
Source text: as §4

Aspergillus niger [19] = assay: as above; format: in vivo; settings: 5 m^2 plots of affected potato plants sprayed
Source text: as §4

Botrytis cinereae [20] = assay: Inhibition of phytopathogenic fungi growth, laboratory test on potato-dextrose agar; format: cell-based; settings: active principle 0.01 % by mass in potato-dextrose agar
Method: (§5) A fungicidal composition based on this compound was prepared in the form of a 0.01% solution thereof in distilled water. A fungicidal action of the composition, according to the invention, was tested for inhibition of vegetative fungi growth such as Fusarium moniliforme, Ventura inaequalis, Rhyzoctonia ciolaceae, Botrytis cinereae, Verticillium albo-atrum, Diplodia zeae, Fusarium oxysporum, Rhoma betae, Rhyzoctonia aderholdii, Aspergillus niger, Alternaria sobani, Botrytis allii, Aspergillus fumigatis, Fusarium culmorum, Penicillium cyclopium affecting potato, sugar beet, cotton seeds either in laboratory or field conditions. For testing it to the Petri dishes containing potato-dextrose agar the composition of the invention was.added at the concentration of an active principle of 0.01 % by mass. The Petri dishes containing the same agar culture were inoculated with a mycelium of phytopathogenic fungi. For control dishes the phytopathogenic fungi were inoculated on agar without using the composition of the invention. A fungicidal effect of the composition, according to the invention was tested in comparison with the known fungicidal compositions based on 2,3-dichloro-1,4-naphthoquinone, zinc N,N'-ethylene-bis-dithiocarbamate and tetramethylthiuram disulphide.

Rhyzoctonia aderholdii [21] = assay: as above; format: cell-based; settings: active principle 0.01 % by mass in potato-dextrose agar
Method: as §5

Fusarium moniliforme [22] = assay: as above; format: cell-based; settings: active principle 0.01 % by mass in potato-dextrose agar
Method: as §5

Venturia inaequalis [23] = assay: as above; format: cell-based; settings: active principle 0.01 % by mass in potato-dextrose agar
Method: as §5

Fusarium oxysporum [24] = assay: as above; format: cell-based; settings: active principle 0.01 % by mass in potato-dextrose agar
Method: as §5

Diplodia zeae [25] = assay: as above; format: cell-based; settings: active principle 0.01 % by mass in potato-dextrose agar
Method: as §5

Verticillium albo-atrum [26] = assay: as above; format: cell-based; settings: active principle 0.01 % by mass in potato-dextrose agar
Method: as §5

Fusarium culmorum [27] = assay: as above; format: cell-based; settings: active principle 0.01 % by mass in potato-dextrose agar
Method: as §5

Botrytis allii [28] = assay: as above; format: cell-based; settings: active principle 0.01 % by mass in potato-dextrose agar
Method: as §5

Rhyzoctonia violaceae [29] = assay: as above; format: cell-based; settings: active principle 0.01 % by mass in potato-dextrose agar
Method: as §5

Alternaria sobani [30] = assay: as above; format: cell-based; settings: active principle 0.01 % by mass in potato-dextrose agar
Method: as §5

Aspergillus fumigatis [31] = assay: as above; format: cell-based; settings: active principle 0.01 % by mass in potato-dextrose agar
Method: as §5

Rhoma betae [32] = assay: as above; format: cell-based; settings: active principle 0.01 % by mass in potato-dextrose agar
Method: as §5

Penicillium cyclopium [33] = assay: as above; format: cell-based; settings: active principle 0.01 % by mass in potato-dextrose agar
Method: as §5

Aspergillus niger [34] = assay: as above; format: cell-based; settings: active principle 0.01 % by mass in potato-dextrose agar
Method: as §5

Compound: O=C(NP(=O)(NNc1ccccc1)NNc1ccccc1)c1ccc(Cl)cc1 [Example 10, para--chlorobenzoylamidophosphoric acid diphenyl hydrazide]
- Inhibition of growth of fungal colonies, % Candida tropicalis tests laboratory (Candida tropicalis [1]): 0%
- solubility (Solubility (qualitative)): soluble in water, alcohols, acetone
- Inhibition of growth of fungal colonies, % Candida albicans tests laboratory (Candida albicans [2]): 100%
- Inhibition of growth of fungal colonies, % Candida tropicalis tests large-scale (Candida tropicalis [3]): 100%
- Inhibition of growth of fungal colonies, % Candida albicans tests large-scale (Candida albicans [4]): 100%

Compound: O=C(NP(=O)(Nc1ccc(Br)cc1)Nc1ccc(Br)cc1)c1ccc(Br)cc1 [Example 15]
- Inhibition of growth of phytopathogenic fungi colonies, % Botrytis cinereae test field (Botrytis cinereae [5]): 98%
- Inhibition of growth of phytopathogenic fungi colonies, % Rhyzoctonia aderholdii test field (Rhyzoctonia aderholdii [6]): 99%
- Inhibition of growth of phytopathogenic fungi colonies, % Fusatium monili-forme test field (Fusarium moniliforme [7]): 99%
- Inhibition of growth of phytopathogenic fungi colonies, % Venturia inaequalis test field (Venturia inaequalis [8]): 98%
- Inhibition of growth of phytopathogenic fungi colonies, % Fusarium oxysporum test field (Fusarium oxysporum [9]): 81%
- Inhibition of growth of phytopathogenic fungi colonies, % Diplodia zeae test field (Diplodia zeae [10]): 98%
- Inhibition of growth of phytopathogenic fungi colonies, % Verticillium albo--atrum test field (Verticillium albo-atrum [11]): 100%
- Inhibition of growth of phytopathogenic fungi colonies, % Fusarium culmorum Tests field (Fusarium culmorum [12]): 100%
- Inhibition of growth of phytopathogenic fungi colonies, % Botrytis allii test field (Botrytis allii [13]): 96%
- Inhibition of growth of phytopathogenic fungi colonies, % Rhyzoctonia violaceae test field (Rhyzoctonia violaceae [14]): 99%
- Inhibition of growth of phytopathogenic fungi colonies, % Alternaria sobani test field (Alternaria sobani [15]): 98%
- Inhibition of growth of phytopathogenic fungi colonies, % Aspergillus fumigatis Tests field (Aspergillus fumigatis [16]): 80%
- Inhibition of growth of phytopathogenic fungi colonies, % Rhoma betae test field (Rhoma betae [17]): 98%
- Inhibition of growth of phytopathogenic fungi colonies, % Penicillium cyclopium Tests field (Penicillium cyclopium [18]): 89%
- Inhibition of growth of phytopathogenic fungi colonies, % Aspergillus niger test field (Aspergillus niger [19]): 98%
- Inhibition of growth of phytopathogenic fungi colonies, % Botrytis cinereae test laboratory (Botrytis cinereae [20]): 100%
- Inhibition of growth of phytopathogenic fungi colonies, % Rhyzoctonia aderholdii test laboratory (Rhyzoctonia aderholdii [21]): 100%
- Inhibition of growth of phytopathogenic fungi colonies, % Fusatium monili-forme test laboratory (Fusarium moniliforme [22]): 100%
- Inhibition of growth of phytopathogenic fungi colonies, % Venturia inaequalis test laboratory (Venturia inaequalis [23]): 100%
- Inhibition of growth of phytopathogenic fungi colonies, % Fusarium oxysporum test laboratory (Fusarium oxysporum [24]): 83%
- Inhibition of growth of phytopathogenic fungi colonies, % Diplodia zeae test laboratory (Diplodia zeae [25]): 100%
- Inhibition of growth of phytopathogenic fungi colonies, % Verticillium albo--atrum test laboratory (Verticillium albo-atrum [26]): 100%
- Inhibition of growth of phytopathogenic fungi colonies, % Fusarium culmorum Tests laboratory (Fusarium culmorum [27]): 100%
- Inhibition of growth of phytopathogenic fungi colonies, % Botrytis allii test laboratory (Botrytis allii [28]): 99%
- Inhibition of growth of phytopathogenic fungi colonies, % Rhyzoctonia violaceae test laboratory (Rhyzoctonia violaceae [29]): 100%
- Inhibition of growth of phytopathogenic fungi colonies, % Alternaria sobani test laboratory (Alternaria sobani [30]): 100%
- Inhibition of growth of phytopathogenic fungi colonies, % Aspergillus fumigatis Tests laboratory (Aspergillus fumigatis [31]): 88%
- Inhibition of growth of phytopathogenic fungi colonies, % Rhoma betae test laboratory (Rhoma betae [32]): 100%
- Inhibition of growth of phytopathogenic fungi colonies, % Penicillium cyclopium Tests laboratory (Penicillium cyclopium [33]): 100%
- Inhibition of growth of phytopathogenic fungi colonies, % Aspergillus niger test laboratory (Aspergillus niger [34]): 100%
- solubility (Solubility (qualitative)): soluble in water, alcohols, acetone
